Test system: angiotensin II receptors
Assay: Inhibition of the pressor response to angiotensin II in conscious cardiomyopathic hamsters
Type: in vivo, hamsters of the BIO TO-2 strain
Details: for Change in mean arterial pressure: pressor response to angiotensin II 100 ng/kg i.v.
Method: The studies described in this experiment were conducted in male hamsters of the BIO TO-2 strain when they were approximately 260 days of age and weighed on average 115 g. These animals develop a genetic form of cardiomyopathy that progresses uniformly among animals through different stages of heart failure. By 240 - 300 days of age the cardiomyopathic hamsters are characterized (as compared with control hamsters) by low mean arterial pressure, a 40% reduction in cardiac output and a decrease in renal blood flow. They display elevated cardiac filling pressure, depressed ventricular function, increased peripheral vascular resistance and have an 8-10-fold increase in plasma atrial natriuretic peptide concentration.
The experiments were conducted in conscious, unrestrained, cardiomyphathic hamsters three hours after placement of cardivascular catheters using brief anesthesia. The catheters allowed measurement of mean arterial pressure, left ventricular end diastolic pressure, left ventricular systolic pressure and heart rate, and provided a means for the administration of agents intravenously.
Preliminary experiments were conducted in conscious cardiomyopathic hamsters to determine a dose regimen of BMS 186295 that would nearly completely block the pressor response to angiotensin II for at least two hours. The pressor responses to two challenges of angiotensin II (100 ng/kg, i.v. dissolved in 0.9% sodium chloride, 1 ml/kg) were determined. This dose of angiotensin II produced over a 30% increase in mean arterial pressure. Based on the preliminary experiments, BMS 186295 was administered to 5 cardiomyopathic hamsters at 30 µmol/kg, i.v. followed by continuous i.v. infusion at 1 µmol/kg per min. Challenges of angiotensin II were then repeated at 10- to 30-minute intervals up to 150 minutes following the bolus injection of BMS 186295.

CCCCC1=NC2(CCCC2)C(=O)N1Cc1ccc(-c2ccccc2-c2nnn[nH]2)cc1 [BMS 186295, 2-butyl-6,7,8,9-tetrahydro-3-[[2'-(1H-tetrazol-5-yl)[1,1'-biphenyl]-4-yl]-methyl]-1,3-diazaspiro[4.4]nonan-4-one]
pressor responses to angiotensin II, of the response before the administration of the inhibitor (following 30 µmol/kg, i.v. then 1 µmol/kg per min, up to 150 minutes): less than 17%
Change in mean arterial pressure (10′ after 30 µmol/kg, i.v. followed by 1 µmol/kg/min, i.v.): 3±2 mm Hg
Change in mean arterial pressure (20′ after 30 µmol/kg, i.v. followed by 1 µmol/kg/min, i.v.): 2±1 mm Hg
Change in mean arterial pressure (30′ after 30 µmol/kg, i.v. followed by 1 µmol/kg/min, i.v.): 3±2 mm Hg
Change in mean arterial pressure (40′ after 30 µmol/kg, i.v. followed by 1 µmol/kg/min, i.v.): 2±1 mm Hg
Change in mean arterial pressure (50′ after 30 µmol/kg, i.v. followed by 1 µmol/kg/min, i.v.): 1±1 mm Hg
Change in mean arterial pressure (60′ after 30 µmol/kg, i.v. followed by 1 µmol/kg/min, i.v.): 4±1 mm Hg
Change in mean arterial pressure (70′ after 30 µmol/kg, i.v. followed by 1 µmol/kg/min, i.v.): 5±2 mm Hg
Change in mean arterial pressure (80′ after 30 µmol/kg, i.v. followed by 1 µmol/kg/min, i.v.): 4±1 mm Hg
Change in mean arterial pressure (90′′ after 30 µmol/kg, i.v. followed by 1 µmol/kg/min, i.v.): 3±1 mm Hg
Change in mean arterial pressure (150′ after 30 µmol/kg, i.v. followed by 1 µmol/kg/min, i.v.): 2±1 mm Hg
Change in mean arterial pressure (120 min after 30 µmol/kg, i.v. followed by 1 µmol/kg/min, i.v.): 3±1 mm Hg
Change in mean arterial pressure (-10′, before BMS-186295): 31±3 mm Hg
Change in mean arterial pressure (-20′, before BMS-186295): 29±2 mm Hg

From patent EP0726072A2, “Composition for the treatment of hypertension and congestive heart failure, containing an angiotensin II antagonist and an endopeptidase inhibitor” (BRISTOL-MYERS SQUIBB COMPANY, priority 1995, dated 1996)
